Measurements taken from US10526294B2, “Pyrrolobenzodiazepines and conjugates thereof” (priority 2016, dated 2020).

Tests used:
Type in all cases: cell-based
[1] = test system: NCI-N87 cells; assay: Cell viability assay (CellTiter-Glo), NCI-N87; conditions: Homo sapiens, HER2 expressing cells, 72 h
Protocol: (§1) Cell Viability Assay for Antibody-Polymer-Drug Conjugates.
(§2) PBD compounds and conjugates thereof were evaluated for their antiproliferation properties in tumor cell lines in vitro using CellTiter-Glo® (Promega Corp). Cells were plated in black walled 96-well plate and allowed to adhere overnight at 37° C. in a humidified atmosphere of 5% CO2. BT474, SKBR3, NCI-N87 cells (HER2 expressing cells), JIMT1 cells (HER2 medium expression level cells) and MCF7 cells (HER2 low expressing levels cells) and were plated at a density of 5,000 cells per well. The next day the medium was replaced with 50 μL fresh medium and 50 μL of 2× stocks of PBD compounds or antibody-PBD conjugate were added to appropriate wells, mixed and incubated for 72 h. CellTiter-Glo® reagent was added to the wells at room temperature and the luminescent signal was measured after 10 min using a SpectraMax M5 plate reader (Molecular Devices). Dose response curves were generated using SoftMax Pro software. IC50 values were determined from four-parameter curve fitting.

[2] = test system: SKBR3 cells; assay: Cell viability assay (CellTiter-Glo), SKBR3; conditions: Homo sapiens, SK-BR-3, HER2 expressing cells, 72 h
Protocol: as §1, §2

[3] = test system: MCF7 cells; assay: Cell viability assay (CellTiter-Glo), MCF7; conditions: Homo sapiens, HER2 low expressing levels cells, 72 h
Protocol: as §1, §2

[4] = test system: JIMT1 cells; assay: Cell viability assay (CellTiter-Glo), JIMT1; conditions: Homo sapiens, JIMT-1, HER2 medium expression level cells, 72 h
Protocol: as §1, §2

[5] = test system: BT474 cells; assay: Cell viability assay (CellTiter-Glo), BT474; conditions: Homo sapiens, BT-474, HER2 expressing cells, 72 h
Protocol: as §1, §2

C=C1CC2C=Nc3cc(OCCCC(=O)Nc4cn(C)c(C(=O)Nc5ccc(-c6cc(C(=O)n7ccc8cc(OC)ccc87)n(C)c6)cc5)n4)c(OC)cc3C(=O)N2C1 (stereo not drawn) [Compound 107, (Z)—N-(4-(5-(5-methoxy-1H-indole-1-carbonyl)-1-methyl-1H-pyrrol-3-yl)phenyl)-4-(4-(7-methoxy-2-methylene-5-oxo-2,3,5,11a-tetrahydro-1H-benzo[e]pyrrolo[1,2-a][1,4]diazepin-8-yloxy)butanamido)-1-methyl-1H-imidazole-2-carboxamide]
IC50 ([1]; conjugates (Table II)): 30 pM
IC50 ([2]; conjugates (Table II)): 20 pM
IC50 ([3]; conjugates (Table II)): 70 pM
IC50 ([4]; conjugates (Table II)): 30 pM
IC50 ([5]; conjugates (Table II)): 160 pM

COc1cc2c(cc1OCCCC(=O)Nc1cc(C(=O)Nc3ccc(-c4cc(C(=O)NCCCO)n(C)c4)cc3)n(C)c1)N=C[C@@H]1CCCN1C2=O [Compound 38, (S,Z)—N-(3-hydroxypropyl)-4-(4-(4-(4-(7-methoxy-5-oxo-2,3,5,11a-tetrahydro-1H-benzo[e]pyrrolo[1,2-a][1,4]diazepin-8-yloxy)butanamido)-1-methyl-1H-pyrrole-2-carboxamido)phenyl)-1-methyl-1H-pyrrole-2-carboxamide]
IC50 ([1]; PBD compounds (Table I)): 4000 pM
IC50 ([2]; PBD compounds (Table I)): 2000 pM
IC50 ([3]; PBD compounds (Table I)): 8000 pM
IC50 ([4]; PBD compounds (Table I)): 3000 pM
IC50 ([5]; PBD compounds (Table I)): 7000 pM

C=C1C[C@H]2C=Nc3cc(OCCCC(=O)Nc4cn(C)c(C(=O)Nc5ccc(-c6cc(C(=O)O)n(C)c6)cc5)n4)c(OC)cc3C(=O)N2C1 [Compound 43, (S,Z)-4-(4-(4-(4-(7-methoxy-2-methylene-5-oxo-2,3,5,11a-tetrahydro-1H-benzo[e]pyrrolo[1,2-a][1,4]diazepin-8-yloxy)butanamido)-1-methyl-1H-imidazole-2-carboxamido)phenyl)-1-methyl-1H-pyrrole-2-carboxylic acid]
IC50 ([1]; PBD compounds (Table I)): 12000 pM
IC50 ([2]; PBD compounds (Table I)): 8200 pM
IC50 ([3]; PBD compounds (Table I)): 250000 pM
IC50 ([4]; PBD compounds (Table I)): 33200 pM
IC50 ([5]; PBD compounds (Table I)): 34300 pM

C=C1C[C@H]2C=Nc3cc(OCCCC(=O)Nc4cn(C)c(C(=O)Nc5ccc(-c6cc7cc(OC)ccc7[nH]6)cc5)n4)c(OC)cc3C(=O)N2C1 [Compound 108, (S,Z)—N-(4-(5-methoxy-1H-indol-2-yl)phenyl)-4-(4-(7-methoxy-2-methylene-5-oxo-2,3,5,11a-tetrahydro-1H-benzo[e]pyrrolo[1,2-a][1,4]diazepin-8-yloxy)butanamido)-1-methyl-1H-imidazole-2-carboxamide]
IC50 ([1]; conjugates (Table II)): 40 pM
IC50 ([2]; conjugates (Table II)): 50 pM
IC50 ([3]; conjugates (Table II)): 430 pM
IC50 ([5]; conjugates (Table II)): 20 pM

C=C1CC2C=Nc3cc(OCCCC(=O)Nc4cn(C)c(C(=O)Nc5ccc(-c6cc(C(=O)n7ccc8cc(C(=O)OC)ccc87)n(C)c6)cc5)n4)c(OC)cc3C(=O)N2C1 (stereo not drawn) [Compound 109, methyl 1-(4-(4-(4-(4-((7-methoxy-2-methylene-5-oxo-2,3,5,11a-tetrahydro-1H-benzo[e]pyrrolo[1,2-a][1,4]diazepin-8-yl)oxy)butanamido)-1-methyl-1H-imidazole-2-carboxamido)phenyl)-1-methyl-1H-pyrrole-2-carbonyl)-1H-indole-5-carboxylate]
IC50 ([1]; conjugates (Table II)): 140 pM
IC50 ([3]; conjugates (Table II)): 180 pM
IC50 ([4]; conjugates (Table II)): 280 pM
IC50 ([5]; conjugates (Table II)): 90 pM

C=C1C[C@H]2C=Nc3cc(OCCCC(=O)Nc4cn(C)c(C(=O)Nc5ccc(-c6cc(C(=O)NCCCO)n(C)c6)cc5)n4)c(OC)cc3C(=O)N2C1 [Compound 39, (S)—N-(4-(5-((3-hydroxypropyl)carbamoyl)-1-methyl-1H-pyrrol-3-yl)phenyl)-4-(4-((7-methoxy-2-methylene-5-oxo-2,3,5,11a-tetrahydro-1H-benzo[e]pyrrolo[1,2-a][1,4]diazepin-8-yl)oxy)butanamido)-1-methyl-1H-imidazole-2-carboxamide]
IC50 ([1]; PBD compounds (Table I)): 400 pM
IC50 ([2]; PBD compounds (Table I)): 600 pM
IC50 ([4]; PBD compounds (Table I)): 900 pM
IC50 ([5]; PBD compounds (Table I)): 2400 pM
